Experimental data taken from ChEMBL document CHEMBL1201862, “PubChem BioAssay data set” (2004).
The source made the active and inactive calls.

Key:
[1] = target: Voltage-gated inwardly rectifying potassium channel KCNH2 (Homo sapiens, UniProt Q12809); test: hERG protection from proarrhythmic block, potency, dose response, cell-based, thallium flux (AID 2121); assay type: ADME
Major prion protein = Major prion protein (Homo sapiens, UniProt P04156); assay type: functional, cell-based
cells [2] = test: cells
[3] = target: Eukaryotic translation initiation factor 4E (Mus musculus, UniProt P63073); test: eIF4E–eIF4G protein interaction inhibitors, dose response, biochemical, TR-FRET (AID 855); assay type: functional;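 note: potency for disrupting eIF4E binding to eIF4GI seen as loss of FRET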
[4] = THP-1 cell cytotoxicity, dose response, cytotoxicity control for Vif-APOBEC3G degradation inhibitor project, THP-1 cells (AID 1117359); assay type: functional; conditions: Human immunodeficiency virus 1, THP-1
Protein skinhead-1 = target: T1, Protein skinhead-1 (Caenorhabditis elegans, UniProt P34707); assay type: functional
T1 sequence (P34707 whole entry): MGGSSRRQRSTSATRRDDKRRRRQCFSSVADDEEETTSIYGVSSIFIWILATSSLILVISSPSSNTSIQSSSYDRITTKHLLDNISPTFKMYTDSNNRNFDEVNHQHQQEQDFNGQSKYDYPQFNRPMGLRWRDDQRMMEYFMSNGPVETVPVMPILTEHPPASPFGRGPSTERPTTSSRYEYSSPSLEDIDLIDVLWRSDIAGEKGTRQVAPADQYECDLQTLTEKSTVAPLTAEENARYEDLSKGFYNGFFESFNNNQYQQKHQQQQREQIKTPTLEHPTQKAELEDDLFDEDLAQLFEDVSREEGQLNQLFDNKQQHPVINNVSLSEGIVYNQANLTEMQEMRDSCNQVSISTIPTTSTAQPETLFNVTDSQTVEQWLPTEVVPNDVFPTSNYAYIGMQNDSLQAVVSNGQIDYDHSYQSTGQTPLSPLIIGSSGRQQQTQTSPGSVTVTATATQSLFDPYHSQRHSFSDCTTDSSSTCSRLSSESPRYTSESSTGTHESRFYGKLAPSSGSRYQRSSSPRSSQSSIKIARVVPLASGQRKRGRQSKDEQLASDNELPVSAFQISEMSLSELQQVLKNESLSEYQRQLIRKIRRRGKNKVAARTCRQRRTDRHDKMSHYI

[5] = inhibitors of clade B AD8 Env fusion, dose response, cell-based, cherry-pick (AID 652062); assay type: functional;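 note: luciferase signal from cell-cell fusion driven by HIV-1 clade B AD8 Env; potency is for inhibitors of fusion seen as a drop in luminescence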
[6] = off-target signal loss in HeLa-CEM21 co-culture – HeLa F-luc CTL cells, cherry-picked, counter-screen for HIV-1 Env fusion inhibitor project, dose response (AID 652040); assay type: functional, cell-based;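 note: potency for signal decrease marking cytotoxic or nonspecific inhibition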
[7] = MC4R antagonists, dose response, counter-screen for LGR2 antagonist project, cell-based, plate reader, cherry pick (AID 743444); assay type: functional;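 note: transfected HEK 293 cells stimulated with alpha-MSH peptide; potency of inhibitors of the alpha-MSH evoked signal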
HEK293 = test: inhibitors of LMP1-driven NF-kB reporter, dose response, cell-based, HEK293, luciferase, cherry-pick (AID 588343); assay type: functional; conditions: Homo sapiens
[8] = LGR2 antagonists, dose response, cell-based, HEK293, CRE-luciferase reporter, cherry pick, set 2 (AID 743343); assay type: functional;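 note: transfected cells were stimulated with diluted bursicon conditioned medium after compound addition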
[9] = target: T2, Acyl-homoserine lactone acylase PvdQ (Pseudomonas aeruginosa (strain LESB58), UniProt Q9I194); test: P. aeruginosa PvdQ acylase inhibitors, dose response, biochemical, fluorescence, plate reader and imaging, cherry-picks (AID 493231)
T2 sequence (Q9I194 whole entry): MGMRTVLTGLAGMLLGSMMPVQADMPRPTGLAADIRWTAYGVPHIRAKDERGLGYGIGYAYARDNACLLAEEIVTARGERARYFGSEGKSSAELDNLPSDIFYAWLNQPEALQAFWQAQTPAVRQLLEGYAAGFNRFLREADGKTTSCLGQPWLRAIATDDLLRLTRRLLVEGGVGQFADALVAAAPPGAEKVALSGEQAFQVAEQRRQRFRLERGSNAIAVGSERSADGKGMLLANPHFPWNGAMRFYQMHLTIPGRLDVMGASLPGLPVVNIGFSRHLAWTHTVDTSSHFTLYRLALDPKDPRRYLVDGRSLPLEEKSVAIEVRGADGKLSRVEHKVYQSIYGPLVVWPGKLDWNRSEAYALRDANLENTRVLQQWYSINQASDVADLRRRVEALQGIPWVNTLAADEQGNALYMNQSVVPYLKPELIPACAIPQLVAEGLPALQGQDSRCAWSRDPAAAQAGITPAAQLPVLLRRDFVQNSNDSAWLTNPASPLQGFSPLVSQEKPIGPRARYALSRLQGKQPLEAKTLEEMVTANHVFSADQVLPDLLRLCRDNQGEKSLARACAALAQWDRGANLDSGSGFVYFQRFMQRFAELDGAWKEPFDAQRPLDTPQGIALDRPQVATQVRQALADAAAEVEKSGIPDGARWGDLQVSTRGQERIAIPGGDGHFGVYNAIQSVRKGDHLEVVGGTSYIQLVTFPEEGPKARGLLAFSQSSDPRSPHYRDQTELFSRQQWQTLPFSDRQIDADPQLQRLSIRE

[10] = target: Luciferin 4-monooxygenase (Photinus pyralis, UniProt P08659); test: Counter Screen for Luciferase-based Assay Positives. [Related pubchem assays: 620, 618, 411 ]
HT-1080 = test: cytotoxicity in HT1080 fibrosarcoma cells, cell-based, fluorescence readout (AID 620); assay type: functional; conditions: Homo sapiens
Kallikrein-7 = Kallikrein-7 (Homo sapiens, UniProt P49862); test: Fluorescence Intensity-based biochemical primary high throughput dose response assay to identify activators of kallikrein-7 (K7) zymogen.
Cytochrome P450 3A4 = Cytochrome P450 3A4 (Homo sapiens, UniProt P08684);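 note: CYP3A4 tested as one member of a cytochrome P450 panel screen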
[11] = target: G-protein coupled receptor 55 (Homo sapiens, UniProt Q9Y2T6); test: GPR55 agonists via beta-arrestin recruitment, primary screen, imaging, U2OS cells, beta-arrestin-GFP redistribution (AID 1961); assay type: functional
[12] = target: FAD-linked sulfhydryl oxidase ALR (Homo sapiens, UniProt P55789); test: inhibitors of human ALR sulfhydryl oxidase, dose response, biochemical, H2O2 detection, luminescence, cherry-pick (AID 493248)
[13] = HepG2 cell cytotoxicity, dose response, cytotoxicity control for non-replicating M. tuberculosis project (AID 489018); assay type: functional; conditions: Mycobacterium tuberculosis
cells [14] = assay type: functional
[15] = THP-1 cell cytotoxicity, dose response, cytotoxicity control for non-replicating M. tuberculosis project (AID 489025); assay type: functional
[16] = control 3'UTR Renilla luciferase suppression, dose response, counter-screen for Shn3 inhibitor project, cell-based, Clone20-Shn3RL, cherry-picked (AID 624133); assay type: functional
[17] = Shn3 3'UTR reporter inhibitors, dose response, cell-based, Clone20 osteoblasts, firefly luciferase, cherry-picked (AID 624132); assay type: functional;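 note: firefly luciferase luminescence from reporter carrying the Shn3 3'UTR in osteoblasts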
[18] = HepG2 cell cytotoxicity, dose response, cytotoxicity control for Shn3 inhibitor project, CellTiter-Glo, cherry-picked (AID 624134); assay type: functional, cell-based
[19] = ZM109 Env clade C HIV-1 fusion inhibitors, dose response, HeLa effector, CEM target cells, luciferase, cherry-pick (AID 652058); assay type: functional, cell-based
[20] = inhibitors of HIV Env-driven cell fusion, dose response, cherry-pick (AID 652057); assay type: functional, cell-based
INS1 = test: beta cell apoptosis inhibitors, cytokine rescue, dose response, luminescence, retest (AID 449756); assay type: functional, cell-based; conditions: Rattus norvegicus;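 note: cell death triggered by IL-1 beta plus TNF-alpha plus IFN-gamma mixture; protective hits raise ATP signal compared with cytokine alone wells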
[21] = CEM21 lymphoblast cell cytotoxicity, dose response, cytotoxicity control for viral fusion inhibitor project, CellTiter-Glo luminescence, cherry-picked (AID 652042); assay type: functional, cell-based;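 note: potency for signal decrease meaning cytotoxicity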
[22] = microbe, parasite or virus in culture; assay type: functional; conditions: Mycobacterium tuberculosis
[23] = test system: Streptococcus sp. 'group A'; test: growth inhibition of control SK(-) GAS strain, dose response, counter-screen for streptokinase expression inhibitor project, luminescence, kanamycin, BacTiterGlo, confirmation (AID 1900); assay type: functional, organism-based
Streptococcus = test: Group A Streptococcus viability loss, dose response, counter-screen for streptokinase expression inhibitor project, luminescence, BacTiterGlo (AID 1915); assay type: functional, organism-based;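 note: potency for reduction of bacterial viability or growth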
[24] = HepG2 cell cytotoxicity, dose response, cytotoxicity control, plate reader, cherry-pick, antagonist series (AID 743416); assay type: functional, cell-based
Paired box protein Pax-8 = Paired box protein Pax-8 (Homo sapiens, UniProt Q06710); test: inhibitors of PAX8-driven TPO luciferase reporter, dose response, RMG-I cells, cherry-pick (AID 687027); assay type: functional, cell-based;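 note: luciferase reporter driven by Pax8 target thyroperoxidase promoter measured by SteadyGlo luminescence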
[25] = NIH:OVCAR-3 ovarian cancer cell cytotoxicity, dose response, PAX8 inhibitor project, plate reader, dry powder samples (AID 743044); assay type: functional, cell-based
[26] = cytotoxicity in OVCAR8 ovarian cancer cells, dose response, PAX8 project, cell-based, plate reader, dry powder samples (AID 743197); assay type: functional; conditions: OVCAR-8
[27] = P. falciparum Dd2 growth inhibitors, dose response, SYBR Green, cherry-picked samples (AID 1159567); assay type: functional, cell-based
[28] = P. falciparum 3D7-ScDHODH growth inhibitors, dose response, SYBR Green, dry powder samples (AID 1159570); assay type: functional, cell-based;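 note: parasite growth measured after 72 hours of compound exposure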
[29] = P. falciparum ATP4 D1247Y mutant growth inhibitors, dose response, NITD609-resistant line, SYBR Green, dry powder (AID 1159571); assay type: functional, cell-based;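 note: parasites synchronized at ring stage by sorbitol before testing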
[30] = P. falciparum Dd2 growth inhibitors, dose response, SYBR Green, dry powder samples (AID 1159566); assay type: functional, cell-based;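 note: potency for growth inhibition with lower SYBR green DNA signal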

O=C(NC(=S)Nc1nc(-c2ccc(Br)cc2)cs1)c1ccco1
EC50 [1]: 7.39 µM (active)

Cc1nc(SC2CCOC2=O)c2c(C)c(C)sc2n1 (stereo unspecified)
IC50 (Major prion protein): 1.93 µM (active)
IC50 (cells [2]): > 138 µM (inactive)

CC(=O)Nc1cccc(NC(=S)Nc2ccc(F)c(Cl)c2)c1
IC50 [3]: 50 µM (inactive)

CC(C)CCNC(=O)Cn1c2c(c(-c3ccccc3Cl)cc1=O)CCC2
CC50 [4]: > 40 µM (active)

COc1ccc(S(=O)(=O)n2ccc(-c3ccc(OCCN(C)c4ccccn4)cc3)n2)cc1
IC50 (Protein skinhead-1): > 100 µM (inactive)
AC50 [5]: 6.63 µM (active)
AC50 [6]: 1.81 µM (active)

COc1ccc(OCC(=O)Nc2nccs2)cc1
AC50 [7]: 5.99 µM (active)
AC50 (HEK293): 4.63 µM (active)
AC50 [8]: 5.35 µM (active)

O=C(NC1CCCCCCC1)c1cccc(Cl)c1
AC50 [9]: 5.02 µM (active)

OCCCNc1[nH]cnc2c3ccccc3nc1-2
CC50 [4]: > 40 µM (active)

Cc1cc(C(=O)CSc2nnc(-c3cccs3)o2)c(C)n1-c1ccccc1
EC50 [10]: > 100 µM (not active)
AC50 (HEK293): 5.59 µM (active)
EC50 (HT-1080): 22.6 µM (active)

Cc1ccc(-c2nc(-c3ccccc3)no2)cc1
EC50 [10]: 1.67 µM (active)
EC50 (HT-1080): > 50 µM (not active)

O=C(NC(=S)Nc1ccccc1)c1cc(-c2ccccc2)nc2ccccc12
EC50 [1]: 0.38 µM (active)

COc1ccc2cc(C(=O)C3CCCN(C(=O)c4cccnc4)C3)ccc2c1 (stereo unspecified)
EC50 (Kallikrein-7): 23.7 µM (inactive)

CCCOC(=O)Oc1ccc2c(=O)c(Oc3cc(C)cc(C)c3)coc2c1
EC50 (Kallikrein-7): 3.19 µM (active)

N#CC1=C(N)OC2=C(CC/C2=C\c2ccccc2)C1c1ccccc1 (stereo unspecified)
AC50 (Cytochrome P450 3A4): 39.8 µM (inconclusive)
EC50 [11]: > 32 µM (inactive)

COc1cc(NC(=O)c2ccco2)c(OC)cc1NC(=O)CCC(=O)Nc1cc(C)ccc1C
EC50 (Kallikrein-7): 26.8 µM (inactive)

O=C(NC1CCSC1)c1cccc(Cl)c1 (stereo unspecified)
AC50 [9]: 4.11 µM (active)

Cc1nc2cc(-c3nc4cc(N)ccc4o3)ccc2[nH]1
EC50 [10]: > 100 µM (not active)
AC50 [12]: 1.72 µM (active)
EC50 (HT-1080): > 50 µM (not active)

C=CCn1c(C)cc(C2=NN=C(NCc3ccccc3)SC2)c1C
CC50 [13]: > 20 µM (active)
IC50 (cells [14]): 10.8 µM (active)
CC50 [15]: 13.8 µM (active)

CC(C)(C)n1ncc2c(=O)n(Cc3cccc(Cn4cnc5c(cnn5C(C)(C)C)c4=O)c3F)cnc21
AC50 [16]: 0.84 µM (active)
AC50 [17]: 1.09 µM (active)
AC50 [5]: 6.31 µM (active)
AC50 [18]: 19.4 µM (active)
AC50 [19]: 1.74 µM (active)
AC50 [20]: 17.9 µM (active)
AC50 (INS1): 3.27 µM (active)
AC50 [6]: 35.4 µM (active)
AC50 [21]: 35.2 µM (active)

Cc1cccc(/C=C2/SC(N/N=C3\CC4CCC3(C)C4(C)C)=NC2=O)c1 (stereo unspecified)
CC50 [22]: > 40 µM (active)
EC50 [1]: 0.12 µM (active)
EC50 [23]: 1.83 µM (active)
EC50 (Streptococcus): 1.3 µM (active)

COc1ccc2c(c1)CCC1(C)CC(=O)C(Br)=C21 (stereo unspecified)
IC50 (Major prion protein): 3.21 µM (active)
IC50 (cells [2]): > 138 µM (inactive)

Cc1ccc(S(=O)(=O)N2[C@@H](CO)CO[C@H]2CC(=O)OCc2ccccc2)cc1
AC50 [24]: > 52 µM (inactive)

C[C@@H]1CN([C@H](C)CO)C(=O)c2cc(NC(=O)c3ccccc3)ccc2O[C@@H](C)CCCCO[C@@H]1CN(C)Cc1ccc(C(F)(F)F)cc1
AC50 (Paired box protein Pax-8): 8.24 µM (active)
AC50 [25]: 50.2 µM (active)
AC50 [26]: > 70 µM (inactive)

CO[C@H](CN(C)S(=O)(=O)c1ccc(Cl)cc1)[C@@H](C)CN([C@@H](C)CO)S(=O)(=O)c1cccc(Cl)c1
AC50 [5]: 25.1 µM (active)
AC50 [19]: 5.98 µM (active)
AC50 [20]: 2.93 µM (active)
AC50 [21]: 39.7 µM (active)

COC(=O)[C@H](CC1(c2cn(S(=O)(=O)CC[Si](C)(C)C)c3ccccc23)C(=O)Nc2ccccc21)NC(=O)OC(C)(C)C (stereo partly specified)
IC50 (Major prion protein): 11.7 µM (inactive)
IC50 (cells [2]): > 138 µM (inactive)

CO/N=C/c1ccc(Sc2ccccc2)c([N+](=O)[O-])c1
AC50 [9]: 97.2 µM (active)

COc1ccc2c3c(n(C)c2c1)[C@@H](CO)N(C(=O)C1CCCC1)CC31CN(C(=O)Nc2cccc(F)c2)C1
AC50 [27]: 1.32 µM (active)
AC50 [28]: 0.818 µM (active)
AC50 [29]: 1.24 µM (active)
AC50 [30]: 1.88 µM (active)
